By IC50 is commonly meant the concentration that inhibits the measured activity by half.

IC50 and Disease control grading data for one substance are collected here from patent publication US5942663A, “Biocidal proteins” (Zeneca Limited, priority 1991, dated 1999).

One experiment has as its system Alternaria brassicola. The format is cell-based. The note with it: A brassicola, 48 hours of incubation.
The subject of the next experiment is Pyricularia oryzae. The format is cell-based.
The next experiment has as its system Cercospora beticola. In words: Foliar diseases in vivo test, protectant foliar spray. The note with it: C beticola on sugarbeet, foliar spray 100 μg/ml. The procedure: The plants were grown in John Innes Potting Compost (No 1 or 2) in 4 cm diameter mini-pots. The protein preparation was formulated immediately prior to use by dissolving in sterile deionised water and diluting to the appropriate concentration. It is assumed that the protein extract contains approximately 1% active ingredient. A pure sample of Mj-AMP1 was similarly prepared. The formulations were applied to the plants as a foliar spray. The spray was applied to maximum discrete droplet retention. Tween 20, to give a final concentration of 0.05%, was added when the spray was applied to cereals. The protein preparation was applied to the foliage (by spraying) one or two days before the plant was inoculated with the disease (protectant application). […] After inoculation, the plants were put into an appropriate environment to allow infection to proceed and then incubated until the disease was ready for assessment. […]
Results are shown in Table 3 for the three fungal pathogens: Septoria nodorum (Fungi Imperfecti) tested on wheat, Plasmopara viticola (Phycomycete) tested on grapevine, and Cercospora beticola tested on sugarbeet. The disease control was recorded by the following grading: 4=no disease; 3=trace-5% of disease on untreated plants; 2=6-25% of disease on untreated plants; 1=26-60% of disease on untreated plants; 0=61-100% of disease on untreated plants.

Experiment [1] has as its system Fusarium oxysporum f.sp. pisi. The experiment is classed as cell-based. The note with it: 48 hours of incubation.

No end group written: not given here.

With “Mj-AMP1: antimicrobial protein from Mirabilis jalapa seeds, dimer of two 4 kDa subunits, 37 residues, SEQ ID NO:1 (QCIGNGGRCNENVGPPYCCSGFCLRQPGQGYGYCKNR; cysteine pairing not given here; also: homodimer)”, the IC50 is 20 µg/mL with Alternaria brassicola, 6 µg/mL in the experiment with Pyricularia oryzae and 15 µg/mL in experiment [1]. The Disease control grading in the experiment with Cercospora beticola is 3 (3=trace-5% of disease on untreated plants).
